From US20090149417A1, “Methods and compositions for the treatment of cancer using benzopyrone-type PARP inhibitors” (priority 2007, published 2009)
Like-named read-outs stand apart in the source and are kept apart here.

Key:
[1] = tested on: malignant cancer cells; settings: malignant versus nonmalignant cells; Kirsten E, Kun E, Int J Mol Med 2000; cited from earlier work
[2] = tested on: L3.6 μl PC cells; test: Luciferase-expressing pancreatic cancer orthotopic nude mouse model; assay type: in vivo; settings: 100 mg/kg/day 2/week×4 weeks
Experimental: The therapeutic efficacy of IIIg on tumor growth and survival is evaluated in different luciferase-expressing pancreatic cancer orthotopic nude mouse models using an IVIS100 Imaging System, allowing a quantitative real time monitoring of tumor growth.
Mice are monitored daily for signs of toxicity including weight loss, diarrhea, inactivity, and general appearance.

[3] = tested on: PANC-1; test: BrdU chemiluminescent cell proliferation assay; assay type: cell-based, human; settings: for IC50: Homo sapiens, PANC-1, 72 h, 72 hour treatment
Experimental: (§1) Test Agents—Cells are treated 24 hours after plating (Day 1) with vehicle or test agents at concentrations of 0.1 μM, 0.3 μM, 1 μM, 3 μM, 10 μM, 30 μM and 100 μM.
(§2) Tumor Cell Lines—Tumor cell lines (Table 1) are obtained from the American Type Cell Collection (ATCC, Rockville, Md.) or NCI-DCTD Tumor Repository (Bethesda, Md.) and maintained in proper growth media supplemented with 10% fetal bovine serum (FBS, NovaTech), and are maintained in specified growth media. Cells are propagated at 37° C. in a humidified atmosphere containing 5% carbon dioxide.
(§3) Cell proliferation assay—Cell proliferation is determined using BrdU chemiluminescent assay, which measures incorporation of 5-bromo-2′-deoxyuridine (BrdU) into the genomic DNA of proliferating cells. Briefly, cells are added with BrdU for 4 hours, during which time it incorporates into the DNA of dividing cells in place of thymidine. Following labeling, cells are fixed and DNA denatured in one step by adding a FixDenat® denaturizing solution. After removing FixDenat, an anti-BrdU-peroxidase conjugated antibody is added, which binds to BrdU incorporated into newly-synthesized cellular DNA. Following antibody incubation, cells are washed 3 times with PBS and subjected to luminescent analysis. The reaction product is quantified by measuring light emission using a scanning multi-well luminometer (luminescence ELISA reader.)
(§4) Experimental Design—Tumor cells (Table 1) are grown to 70% confluency, trypsinized, counted and seeded in 96 well flat-bottom plates at final concentrations of 7.5×103-3×10^4 cells/well (Day 0); treatment with IIIg begins on Day 1 and continues for 68 hours (Table 2). Doses for both compounds range between […] and 100 μM. At the 68 hour time point, viable cell number is measured by BrdU assay as described above. Experiments are repeated at least twice at the same doses to determine inhibition of cell proliferation. Results from these studies are used to calculate an IC50 value (drug concentration that results in half-maximal response) for IIIg in each line.
(§5) For single studies, data from each experiment is collected and expressed as % Inhibition of Cell Proliferation (% ICP) using the following calculation.
(§6) % ICP=100%×[(1−(RLUtest/RLUvehicle)]
(§7) Where RLUtest is the relative light unit of the tested sample, and RLUvehicle is the relative light unit of the vehicle in which the drug is dissolved. An IC50 value is calculated from % ICP (PRISM® GraphPad software) using the formula:
(§8) y=min+(max−min)/(1+10^(Log(IC50)−x)×Hillslope)
(§9) Where (x) is the logarithm of agonist concentration, (y) is the response, and (min) and (max) are the variable lower and upper plateaus, respectively. The variable Hillslope characterizes the slope of the curve at its midpoint. The IC50 is the drug concentration for y halfway between min and max.

[4] = tested on: MX-1; test: BrdU chemiluminescent cell proliferation assay; assay type: cell-based, human; settings: for IC50: Homo sapiens, MX1, 72 hour treatment
Experimental: as §1, §2, §3, §4, §5, §6, §7, §8, §9

[5] = tested on: PC-3; test: BrdU chemiluminescent cell proliferation assay; assay type: cell-based, human; settings: for IC50: Homo sapiens, PC-3, 72 h, 72 hour treatment
Experimental: as §1, §2, §3, §4, §5, §6, §7, §8, §9

[6] = mean of Exp1 and Exp2, read-out: Mean IC50

**Q.** Which results are given for O=c1ccc2c(I)c([N+](=O)[O-])ccc2o1 [IIIg, 5-iodo-6-nitro-benzopyrone]?
**A.** Selective cytotoxicity [1]: selective cytotoxicity upon malignant cancer cells but not upon nonmalignant cells; Signs of toxicity [2]: without signs of toxicity; Survival [2]: prolongs survival; Tumor burden [2]: significantly reduces the tumor burden; IC50 ([3]; Exp1, read-out: IC50): 22 µM; IC50 ([3]; Exp2, read-out: IC50): 27 µM; IC50 [3, 6]: 24.5 µM; Mean Maximum % Response ([3]; Max Concentration 100 μM): 99%; IC50 ([4]; Exp2, read-out: IC50): 27 µM; IC50 [4, 6]: 27 µM; Mean Maximum % Response ([4]; Max Concentration 100 μM): 99%; IC50 ([5]; Exp1, read-out: IC50): 22 µM; IC50 ([5]; Exp2, read-out: IC50): 25.3 µM; IC50 [5, 6]: 23.7 µM; Mean Maximum % Response ([5]; Max Concentration 100 μM): 100%
